pIC50, pKi: −log10 of the molar value. Bounds are passed on as bounds.

Assay [1] deals with T1, human recombinant bradykinin B1 receptor (Homo sapiens, UniProt P46663).
T1 construct: purchased Euroscreen ES-091; host or cells: CHO cells
T1 sequence (P46663 1-353): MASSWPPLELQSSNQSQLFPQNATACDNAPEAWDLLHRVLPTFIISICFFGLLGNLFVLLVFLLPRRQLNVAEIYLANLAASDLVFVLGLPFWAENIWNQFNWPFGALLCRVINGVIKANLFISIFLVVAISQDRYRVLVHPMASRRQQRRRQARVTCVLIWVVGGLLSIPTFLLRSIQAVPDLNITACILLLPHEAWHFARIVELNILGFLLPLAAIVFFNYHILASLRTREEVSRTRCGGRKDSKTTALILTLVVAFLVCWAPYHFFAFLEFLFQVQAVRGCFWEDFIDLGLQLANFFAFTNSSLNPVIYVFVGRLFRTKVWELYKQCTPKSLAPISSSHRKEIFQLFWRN
Description: Human recombinant bradykinin B1 receptor binding. As to conditions: CHO cell membranes, [3H]-[Des-Arg10] Kallidin radioligand; read-out: B1 binding. The procedure: 1. Human Recombinant Bradykinin B1 Receptor Binding
Binding assays were carried out on human recombinant bradykinin) receptors (expressed in CHO cells) according to the Euroscreen Technical Data Sheet (Cat. No.: ES-091). 20 μg protein/tube was incubated with [3,4-prolyl-3,4-^3H(N)]-[Des-Arg^10] Kallidin as radioligand. Non specific binding was determined in the presence of 10 μM Lys-des-Arg^9-Bradykinin. The final incubation volume was 250 μl. Samples were incubated for 15 min. at 25° C. then were rapidly vacuum filtered through GF/B filters presoaked for at least 1 h in 0.5% PEI. Radioactivity was determined by liquid scintillation spectroscopy.

The target in assay [2] is T2, recombinant human B1 receptors (Homo sapiens, UniProt P46663).
T2 construct: host or cells: CHO (CHO-B1)
T2 sequence (P46663 1-353): T1 sequence (P46663 1-353)
The assay is described as follows: Functional assay: antagonist potency by cytosolic calcium measurement in CHO-B1 cells. As to conditions: CHO-B1 cells, inhibition of LysDABK (EC80)-evoked [Ca2+]i elevation; read-out: B1 func. The format is cell-based. The procedure:
Assessment of Antagonist Potency at B1 and B2 Receptors In Vitro by Measurement of Cytosolic Calcium Ion Concentration with a Plate Reader Fluorimeter in Cells Expressing Recombinant Human B1 or B2 Receptors
Chinese hamster ovary (CHO) cells stably expressing recombinant human B1 (CHO-B1, Euroscreen) or B2 (CHO-B2, Perkin-Elmer) receptors were cultured in Dulbecco's Modified Eagle's Medium (DMEM) containing 10% Fetal Calf Serum (FCS), 100 U/ml penicillin, 0.1 mg/ml streptomycin, 0.25 μg/ml amphotericin B, 1% Minimum Essential Medium Eagle (MEM), non essential amino acid solution, 600 μg/ml G418, 1% pyruvate (for the B2 cell line). Cells were kept at 37° C. in a humidified incubator in an atmosphere of 5% CO2/95% air and were passaged 1:4 three times a week. Cells were plated at 1.5−2.5×10^4 cell/well on standard 96-well microplates, measurements of cytosolic calcium ion concentration ([Ca^2+]i) were carried out 1-2 days after cell plating.
Measurements of [Ca^2+]i were carried out on CHO-B1 and CHO-B2 cells stably expressing human B1 and B2 receptors, respectively. Cells were grown in standard 96-well microplates and before the measurement were loaded with a fluorescent Ca^2+-sensitive dye, fluo-4/AM (2 μM): after removing the culture medium the dye was added to the cells (dissolved in assay buffer: 145 mM NaCl, 5 mM KCl, 2 mM MgCl2, 2 mM CaCl2, 10 mM HEPES, 20 mM D-glucose, 2 mM probenecid, 100 μl/well) and cells were incubated at 37° C. in a humidified incubator in an atmosphere of 5% CO2/95% air for 40-120 min. To stop dye loading cells were washed twice with assay buffer. After washing, various concentrations of the test compounds (diluted in extracellular medium from a DMSO stock solution, final DMSO concentration was <0.1%) or buffer were added to each well depending on the experimental setup. After incubation at 37° C. for 20-25 min. baseline and agonist-evoked changes of [Ca^2+]i were measured column by column with a plate reader fluorimeter (Fluoroskan Ascent, Labsystems). Excitation and detection of emission was carried out from the bottom of the plate. Filters used for Fluo-4: excitation filter—485 nm, emission filter—538 nm. The whole measurement process was performed at 37° C. and was controlled by custom software. Inhibitory potency of the test compounds was assessed by measuring the reduction in the agonist-evoked [Ca^2+]i-elevation in the presence of different concentrations of the compounds. The agonists were LysDABK for CHO-B1, and bradykinin for CHO-B2 cells. Agonists were applied at an EC80 concentration, the EC80-values were derived from daily determined dose-response curves. Fluorescence data were expressed as ΔF/F (fluorescence change normalized to baseline). All treatments on a single plate were measured in multiple wells. Data from all wells with the same treatment were averaged and the average values were used for analysis. Inhibitory potency of a compound at a single concentration point was expressed as percent inhibition of the control agonist response. Sigmoidal concentration-inhibition curves were fitted to the data (derived from at least three independent experiments) and IC50-values were determined as the concentration that produces half of the maximal inhibition caused by the compound.

For `C[C@@H](NC(=O)c1ccc(S(=O)(=O)Nc2ccccc2Oc2ccccc2)cc1)C(=O)N1CCC(CCN2CCCC2)CC1` [Example 1, (R)—N-{1-Methyl-2-oxo-2-[4-(2-pyrrolidin-1-yl-ethyl)-piperidin-1-yl]-ethyl}-4-(2-phenoxy-phenylsulfamoyl)-benzamide], in assay [1], the pKi was more than 7.70. For the same compound, the pIC50 in assay [2] is more than 7.70.

`O=C(NCC(=O)N1CCC(CCN2CCCC2)CC1)c1ccc(S(=O)(=O)Nc2ccccc2Sc2ccccc2)cc1` [Example 2, N-{2-oxo-2-[4-(2-pyrrolidin-1-yl-ethyl)-piperidin-1-yl]-ethyl}-4-(2-phenylsulfanyl-Phenylsulfamoyl)-benzamide]: the pKi in assay [1] was more than 7.70. Further, the pIC50 in assay [2] is more than 7.70.

`O=C(NCC(=O)N1CCC(N2CCCC2)CC1)c1ccc(S(=O)(=O)Nc2ccccc2Sc2ccccc2)cc1` [Example 3, N-[2-Oxo-2-(4-pyrrolidin-1-yl-piperidin-1-yl)-ethyl]-4-(2-phenylsulfanyl-phenylsulfamoyl)-benzamide]: the pKi in assay [1] is more than 7.70. Further, in assay [2], the pIC50 was more than 7.70.

With `CN(C)CCN1CCN(C(=O)CNC(=O)c2ccc(S(=O)(=O)Nc3ccccc3Sc3ccccc3)cc2)CC1` [Example 4, N-{2-[4-(2-Dimethylamino-ethyl)-piperazin-1-yl]-2-oxo-ethyl}-4-(2-phenylsulfanyl-phenylsulfamoyl)-benzamide], the pKi in assay [1] was 7.00 to 7.70. Further, the pIC50 in assay [2] was 7.00 to 7.70.

Consider `O=C(NCC(=O)N1CCN(CCCN2CCCC2)CC1)c1ccc(S(=O)(=O)Nc2ccccc2Sc2ccccc2)cc1` [Example 5, N-{2-Oxo-2-[4-(3-pyrrolidin-1-yl-propyl)-piperazin-1-yl]-ethyl}-4-(2-phenylsulfanyl-phenylsulfamoyl)-benzamide], for which the pKi in assay [1] was 7.00 to 7.70. Further, in assay [2], the pIC50 is 7.00 to 7.70.

For `CN(C)CCCN1CCN(C(=O)CNC(=O)c2ccc(S(=O)(=O)Nc3ccccc3Sc3ccccc3)cc2)CC1` [Example 6, N-{2-[4-(3-Dimethylamino-propyl)-piperazin-1-yl]-2-oxo-ethyl}-4-(2-phenylsulfanyl-phenylsulfamoyl)-benzamide], the pKi in assay [1] was 7.00 to 7.70. For the same compound, in assay [2], the pIC50 is 7.00 to 7.70.

As for `O=C(NCC(=O)N1CCCN(CCCN2CCCC2)CC1)c1ccc(S(=O)(=O)Nc2ccccc2Sc2ccccc2)cc1` [Example 7, N-{2-Oxo-2-[4-(3-pyrrolidin-1-yl-propyl)-[1,4]diazepan-1-yl]-ethyl}-4-(2-phenylsulfanyl-phenylsulfamoyl)-benzamide], in assay [1], the pKi was 7.00 to 7.70. In assay [2], the pIC50 was 7.00 to 7.70.

On to `CN1CCCC(CN2CCN(C(=O)CNC(=O)c3ccc(S(=O)(=O)Nc4ccccc4Sc4ccccc4)cc3)CC2)C1` (stereo not drawn) [Example 8, N-{2-[4-(1-Methyl-piperidin-3-ylmethyl)-piperazin-1-yl]-2-oxo-ethyl}-4-(2-phenylsulfanyl-phenylsulfamoyl)-benzamide], for which the pKi in assay [1] was 7.00 to 7.70. For the same compound, the pIC50 in assay [2] was 7.00 to 7.70.

As for `O=C(NCC(=O)N1CCN(CCN2CCOCC2)CC1)c1ccc(S(=O)(=O)Nc2ccccc2Sc2ccccc2)cc1` [Example 9, N-{2-[4-(2-Morpholin-4-yl-ethyl)-piperazin-1-yl]-2-oxo-ethyl}-4-(2-phenylsulfanyl-phenylsulfamoyl)-benzamide], the pKi in assay [1] was 7.00 to 7.70. The pIC50 in assay [2] was 7.00 to 7.70.

Turning to `C[C@H](NC(=O)c1ccc(S(=O)(=O)Nc2ccccc2Oc2ccccc2)cc1)C(=O)N1CCC(CCN2CCCC2)CC1` [Example 26, (S)—N-{1-Methyl-2-oxo-2-[4-(2-pyrrolidin-1-yl-ethyl)-piperidin-1-yl]-ethyl}-4-(2-phenoxy-phenylsulfamoyl)-benzamide], the pKi in assay [1] is more than 7.70. The pIC50 in assay [2] was more than 7.70.

In the case of `O=C(N[C@H](CO)C(=O)N1CCC(CCN2CCCC2)CC1)c1ccc(S(=O)(=O)Nc2ccccc2Oc2ccccc2)cc1` [Example 27, (R)—N-{1-Hydroxymethyl-2-oxo-2-[4-(2-pyrrolidin-1-yl-ethyl)-piperidin-1-yl]-ethyl}-4-(2-phenoxy-phenylsulfamoyl)-benzamide], the pKi in assay [1] is more than 7.70. In addition, the pIC50 in assay [2] is more than 7.70.

As for `O=C(N[C@H](Cc1ccc(O)cc1)C(=O)N1CCC(O)CC1)c1ccc(S(=O)(=O)Nc2ccccc2Oc2ccccc2)cc1` [Example 29, (R)—N-[1-(4-Hydroxy-benzyl)-2-(4-hydroxy-piperidin-1-yl)-2-oxo-ethyl]-4-(2-phenoxy-phenylsulfamoyl)-benzamide], in assay [1], the pKi was more than 7.70. In addition, the pIC50 in assay [2] was more than 7.70.

With `O=C(N[C@H](Cc1ccc(O)cc1)C(=O)N1CCC(CO)CC1)c1ccc(S(=O)(=O)Nc2ccccc2Oc2ccccc2)cc1` [Example 30, (R)—N-[1-(4-Hydroxy-benzyl)-2-(4-hydroxymethyl-piperidin-1-yl)-2-oxo-ethyl]-4-(2-phenoxy-phenylsulfamoyl)-benzamide], the pKi in assay [1] was more than 7.70. Further, the pIC50 in assay [2] was more than 7.70.

Consider `O=C(N[C@H](Cc1ccc(O)cc1)C(=O)N1CCC(CCN2CCCC2)CC1)c1ccc(S(=O)(=O)Nc2ccccc2Oc2ccccc2)cc1` [Example 31, (R)—N-{1-(4-Hydroxy-benzyl)-2-oxo-2-[4-(2-pyrrolidin-1-yl-ethyl)-piperidin-1-yl]-ethyl}-4-(2-phenoxy-phenylsulfamoyl)-benzamide], for which the pKi in assay [1] is more than 7.70. Further, the pIC50 in assay [2] is more than 7.70.

As for `O=C(N[C@@H](Cc1ccc(O)cc1)C(=O)N1CCC(CCN2CCCC2)CC1)c1ccc(S(=O)(=O)Nc2ccccc2Oc2ccccc2)cc1` [Example 32, (S)—N-{1-(4-Hydroxy-benzyl)-2-oxo-2-[4-(2-pyrrolidin-1-yl-ethyl)-piperidin-1-yl]-ethyl}-4-(2-phenoxy-phenylsulfamoyl)-benzamide], the pKi in assay [1] is more than 7.70. In addition, the pIC50 in assay [2] is more than 7.70.

`O=C(N[C@@H](Cc1ccc(O)cc1)C(=O)N1CCC(N2CCCC2)CC1)c1ccc(S(=O)(=O)Nc2ccccc2Oc2ccccc2)cc1` [Example 33, (S)—N-[1-(4-Hydroxy-benzyl)-2-oxo-2-(4-pyrrolidin-1-yl-piperidin-1-yl)-ethyl]-4-(2-phenoxy-phenylsulfamoyl)-benzamide]: the pKi in assay [1] was more than 7.70. For the same compound, the pIC50 in assay [2] is more than 7.70.

`O=C(N[C@@H](Cc1ccc(O)cc1)C(=O)N1CCC(O)CC1)c1ccc(S(=O)(=O)Nc2ccccc2Oc2ccccc2)cc1` [Example 34, (S)—N-[1-(4-Hydroxy-benzyl)-2-(4-hydroxy-piperidin-1-yl)-2-oxo-ethyl]-4-(2-phenoxy-phenylsulfamoyl)-benzamide]: the pKi in assay [1] is more than 7.70. Besides, in assay [2], the pIC50 is more than 7.70.

Regarding `O=C(N[C@@H](Cc1ccc(O)cc1)C(=O)N1CCC(CCO)CC1)c1ccc(S(=O)(=O)Nc2ccccc2Oc2ccccc2)cc1` [Example 35, (S)—N-{1-(4-Hydroxy-benzyl)-2-[4-(2-hydroxy-ethyl)-piperidin-1-yl]-2-oxo-ethyl}-4-(2-phenoxy-phenylsulfamoyl)-benzamide], the pKi in assay [1] was more than 7.70. Also, in assay [2], the pIC50 was more than 7.70.

Values taken from US20100298299A1, “NON-PEPTIDE DERIVATIVES AS BRADYKININ B1 ANTAGONISTS” (priority 2007, published 2010).
